Where two headings read alike, the source gives them in different places.
Target: T1, PDE4B2 (Homo sapiens, UniProt Q07343)
T1 construct: purchased BPS bioscience
Assay: In vitro PDE4B2 enzyme inhibitory activity (AMP-Glo)
Type: biochemical

[1] = PDE4B2 enzyme inhibition, read-out: PDE4B2 IC50
[2] = read-out: IC50 values of PDE4B2 enzyme inhibition

T1 sequence (Q07343 1-564 isoform Q07343-2): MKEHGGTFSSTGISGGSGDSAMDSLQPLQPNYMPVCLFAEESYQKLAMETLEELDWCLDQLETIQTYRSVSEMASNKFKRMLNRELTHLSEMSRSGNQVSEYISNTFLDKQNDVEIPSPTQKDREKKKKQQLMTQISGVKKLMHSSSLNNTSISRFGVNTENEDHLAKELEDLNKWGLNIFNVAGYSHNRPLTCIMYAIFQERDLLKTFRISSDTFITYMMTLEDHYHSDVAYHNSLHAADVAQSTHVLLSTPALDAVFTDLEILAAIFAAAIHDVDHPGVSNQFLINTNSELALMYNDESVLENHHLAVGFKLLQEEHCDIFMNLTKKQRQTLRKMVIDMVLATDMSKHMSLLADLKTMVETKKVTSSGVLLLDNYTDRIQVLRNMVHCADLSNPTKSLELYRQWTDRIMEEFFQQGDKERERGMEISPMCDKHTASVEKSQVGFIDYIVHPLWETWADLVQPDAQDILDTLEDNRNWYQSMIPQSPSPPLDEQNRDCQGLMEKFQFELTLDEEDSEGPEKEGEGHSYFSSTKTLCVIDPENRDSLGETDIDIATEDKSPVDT
Protocol: 2.1.1 Preparing stock solutions of compounds in DMSO: Compound powders were dissolved in 100% DMSO to produce 10 mM stock solutions, and oscillated in a shaker until the compounds were completely dissolved.
2.1.3 Preparing working stock solutions: a) A solution of Roflumilast (reference compound) in DMSO was diluted to 60 μM, and then serially diluted 4-fold into 10 concentration gradients. B) The solutions of the test compounds in DMSO were diluted to 200 μM, and then serially diluted 3-fold. C) A 200× positive control (60 μM Roflumilast) and a 200× vehicle control (100% DMSO) were prepared. D) The assay plate was centrifuged at 1000 rpm for 1 minute.
(1) 20 nL of compound dilution solutions were transferred with Echo 550 into each well of the assay plate.
(2) The assay plate was sealed and centrifuged at 1000 rpm for 1 minute.
(3) 2×PDE4B2/PDE4D2 was prepared in an ice-cold PDE assay buffer.
(4) 2 μL of 2×PDE4B2/PDE4D2 was added to each well of the assay plate prepared in step 2.
(5) The assay plate was sealed and allowed to equilibrate at room temperature for 10 minutes.
(6) 2× Cyclic-3′,5′-AMP was prepared in a PDE assay buffer.
7) 2 μL of 2× Cyclic-3′,5′-AMP (prepared in step 6) was added to each well of the assay plate (prepared in step 5) to initiate the reaction. The plate was incubated at room temperature for 60 minutes.
8) 4 μL AMP-Glo Reagent I was added, and the plate was incubated at room temperature for 60 minutes.
9) 8 μL AMP detection reagent was added. The plate was incubated at room temperature for 60 minutes.
10) The RLU signal was read on an Envision 2105 plate reader.

| SMILES | IC50 [1] [nM] | IC50 [2] [nM] |
| --- | --- | --- |
| COc1cc(C2(OC)CN(c3nc4c(c(NC5(CO)CCC5)n3)[S+]([O-])CC4)C2)ccc1Cl (racemic) [Compound 79, (R/S)-2-(3-(4-chloro-3-methoxyphenyl)-3-methoxyazetidin-1-yl)-4-((1-(hydroxymethyl)cyclobutyl)amino)-6,7-dihydrothieno[3,2-d]pyrimidine 5-oxide] | ≤ 2 | < 1 |
| COc1ccc2c(c1)CN(c1nc3c(c(NC4(CO)CCC4)n1)[S+]([O-])CC3)C2 (racemic) [Compound 26, (R/S)-4-((1-(hydroxymethyl)cyclobutyl)amino)-2-(5-methoxyisoindolin-2-yl)-6,7-dihydrothieno[3,2-d]pyrimidine 5-oxide] | 2 to 5 |  |
| COC1(c2ccc(Cl)c(F)c2)CN(c2nc3c(c(NC4(CO)CCC4)n2)[S+]([O-])CC3)C1 (racemic) [Compound 82, (R/S)-2-(3-(4-chloro-3-fluorophenyl)-3-methoxyazetidin-1-yl)-4-((1-(hydroxymethyl)cyclobutyl)amino)-6,7-dihydrothieno[3,2-d]pyrimidine 5-oxide] | ≤ 2 | < 1 |
| [O-][S+]1CCc2nc(N3CC(O)(c4ccc(Cl)cc4)C3)nc(NC3(CO)CCC3)c21 (racemic) [Compound 1, (R/S)-2-(3-(4-chlorophenyl)-3-hydroxyazetidin-1-yl)-4-((1-(hydroxymethyl)cyclobutyl)amino)-6,7-dihydrothieno[3,2-d]pyrimidine 5-oxide] | 2 to 5 |  |
| CNc1ccc(C2(OC)CN(c3nc4c(c(NC5(CO)CCC5)n3)[S+]([O-])CC4)C2)cc1 (racemic) [Compound 112, (R/S)-4-((1-(hydroxymethyl)cyclobutyl)amino)-2-(3-methoxy-3-(4-(methylamino)phenyl)azetidin-1-yl)-6,7-dihydrothieno[3,2-d]pyrimidine 5-oxide] | ≤ 2 |  |
| [2H]C([2H])([2H])OC1(c2ccc(Cl)cc2)CN(c2nc3c(c(NC4CCOCC4)n2)[S+]([O-])CC3)C1 (racemic) [Compound 94, (R/S)-2-(3-(4-chlorophenyl)-3-(methoxy-d3)azetidin-1-yl)-4-((tetrahydro-2H-pyran-4-yl)amino)-6,7-dihydrothieno[3,2-d]pyrimidine 5-oxide] | ≤ 2 | < 1 |
| COc1ccc(C2(OC)CN(c3nc4c(c(NC5(CO)CCC5)n3)[S+]([O-])CC4)C2)cc1 (racemic) [Compound 100, (R/S)-4-((1-(hydroxymethyl)cyclobutyl)amino)-2-(3-methoxy-3-(4-methoxyphenyl)azetidin-1-yl)-6,7-dihydrothieno[3,2-d]pyrimidine 5-oxide] | ≤ 2 | < 1 |
| CC(C)(O)c1ccc2c(c1)CN(c1nc3c(c(NC4(CO)CCC4)n1)[S+]([O-])CC3)C2 (racemic) [Compound 29, (R/S)-4-((1-(hydroxymethyl)cyclobutyl)amino)-2-(5-(2-hydroxypropan-2-yl)isoindolin-2-yl)-6,7-dihydrothieno[3,2-d]pyrimidine 5-oxide] | ≤ 2 |  |
| COc1cc(C2(O)CN(c3nc4c(c(NC5(CO)CCC5)n3)[S+]([O-])CC4)C2)ccc1Cl (racemic) [Compound 3, (R/S)-2-(3-(4-chloro-3-methoxyphenyl)-3-hydroxyazetidin-1-yl)-4-((1-(hydroxymethyl)cyclobutyl)amino)-6,7-dihydrothieno[3,2-d]pyrimidine 5-oxide] | ≤ 2 |  |
| CS(=O)(=O)Nc1ccc2c(c1)CN(c1nc3c(c(NC4(CO)CCC4)n1)[S+]([O-])CC3)C2 (racemic) [Compound 31, (R/S)—N-(2-(4-((1-(hydroxymethyl)cyclobutyl)amino)-5-oxido-6,7-dihydrothieno[3,2-d]pyrimidin-2-yl)isoindolin-5-yl)methanesulfonamide] | 2 to 5 |  |
| COC1(c2ccc(Cl)cc2)CN(c2nc3c(c(NC4(CO)CCC4)n2)[S+]([O-])CC3)C1 (racemic) [Compound 83, (R/S)-2-(3-(4-chlorophenyl)-3-methoxyazetidin-1-yl)-4-((1-(hydroxymethyl)cyclobutyl)amino)-6,7-dihydrothieno[3,2-d]pyrimidine 5-oxide] | ≤ 2 | < 1 |
| COc1ccc(C2(O)CN(c3nc4c(c(NC5(CO)CCC5)n3)[S+]([O-])CC4)C2)cc1 (racemic) [Compound 2, (R/S)-2-(3-hydroxy-3-(4-methoxyphenyl)azetidin-1-yl)-4-((1-(hydroxymethyl)cyclobutyl)amino)-6,7-dihydrothieno[3,2-d]pyrimidine 5-oxide] | 2 to 5 |  |
| COc1cc(C2(O)CN(c3nc4c(c(NC5CCOCC5)n3)[S+]([O-])CC4)C2)ccc1Cl (racemic) [Compound 81, (R/S)-2-(3-(4-chloro-3-methoxyphenyl)-3-hydroxyazetidin-1-yl)-4-((tetrahydro-2H-pyran-4-yl)amino)-6,7-dihydrothieno[3,2-d]pyrimidine 5-oxide] | 2 to 5 |  |
| [O-][S+]1CCc2nc(N3CC(O)(c4ccc(Cl)c(F)c4)C3)nc(NC3(CO)CCC3)c21 (racemic) [Compound 80, (R/S)-2-(3-(4-chloro-3-fluorophenyl)-3-hydroxyazetidin-1-yl)-4-((1-(hydroxymethyl)cyclobutyl)amino)-6,7-dihydrothieno[3,2-d]pyrimidine 5-oxide] | 2 to 5 |  |
| [O-][S+]1CCc2nc(N3Cc4ccc(C(F)F)cc4C3)nc(NC3(CO)CCC3)c21 (racemic) [Compound 91, (R/S)-2-(5-(difluoromethyl)isoindolin-2-yl)-4-((1-(hydroxymethyl)cyclobutyl)amino)-6,7-dihydrothieno[3,2-d]pyrimidine 5-oxide] | 2 to 5 |  |
| [O-][S+]1CCc2nc(N3CC(O)(c4ccc(C(F)(F)F)cc4)C3)nc(NC3(CO)CCC3)c21 (racemic) [Compound 7, (R/S)-2-(3-hydroxy-3-(4-(trifluoromethyl)phenyl)azetidin-1-yl)-4-((1-(hydroxymethyl)cyclobutyl)amino)-6,7-dihydrothieno[3,2-d]pyrimidine 5-oxide] | 2 to 5 |  |
| COC1(c2ccc(Cl)c(F)c2)CN(c2nc3c(c(NC4CCOCC4)n2)[S+]([O-])CC3)C1 (racemic) [Compound 86, (R/S)-2-(3-(4-chloro-3-fluorophenyl)-3-methoxyazetidin-1-yl)-4-((tetrahydro-2H-pyran-4-yl)amino)-6,7-dihydrothieno[3,2-d]pyrimidine 5-oxide] | ≤ 2 | < 1 |
| COC1(c2ccc(N3CCCC3)cc2)CN(c2nc3c(c(NC4(CO)CCC4)n2)[S+]([O-])CC3)C1 (racemic) [Compound 107, (R/S)-4-((1-(hydroxymethyl)cyclobutyl)amino)-2-(3-methoxy-3-(4-(pyrrolidin-1-yl)phenyl)azetidin-1-yl)-6,7-dihydrothieno[3,2-d]pyrimidine 5-oxide] | ≤ 2 | < 1 |
| COC1(c2ccc(OC(F)F)cc2)CN(c2nc3c(c(NC4(CO)CCC4)n2)[S+]([O-])CC3)C1 (racemic) [Compound 105, (R/S)-2-(3-(4-(difluoromethoxy)phenyl)-3-methoxyazetidin-1-yl)-4-((1-(hydroxymethyl)cyclobutyl)amino)-6,7-dihydrothieno[3,2-d]pyrimidine 5-oxide] | ≤ 2 | < 1 |
| COC1(c2ccc(OCC3CC3)cc2)CN(c2nc3c(c(NC4(CO)CCC4)n2)[S+]([O-])CC3)C1 (racemic) [Compound 106, (R/S)-2-(3-(4-(cyclopropylmethoxy)phenyl)-3-methoxyazetidin-1-yl)-4-((1-(hydroxymethyl)cyclobutyl)amino)-6,7-dihydrothieno[3,2-d]pyrimidine 5-oxide] | ≤ 2 |  |
| COc1ccc(C2(O)CN(c3nc4c(c(Nc5ccc(CC(=O)O)cc5)n3)[S+]([O-])CC4)C2)cc1Cl (racemic) [Compound 8, (R/S)-2-(4-((2-(3-(3-chloro-4-methoxyphenyl)-3-hydroxyazetidin-1-yl)-5-oxido-6,7-dihydrothieno[3,2-d]pyrimidin-4-yl)amino)phenyl)acetic acid] | 2 to 5 |  |
| [O-][S+]1CCc2nc(C3=CCN(c4ncc(Cl)cn4)CC3)nc(NC3(CO)CCC3)c21 (racemic) [Compound 16, (R/S)-2-(1-(5-chloropyrimidin-2-yl)-1,2,3,6-tetrahydropyridin-4-yl)-4-((1-(hydroxymethyl)cyclobutyl)amino)-6,7-dihydrothieno[3,2-d]pyrimidine 5-oxide] | 2 to 5 |  |
| CC(C)(O)c1ccc2c(c1)CN(c1nc3c(c(NC4CCOCC4)n1)[S+]([O-])CC3)C2 (racemic) [Compound 84, (R/S)-2-(5-(2-hydroxypropan-2-yl)isoindolin-2-yl)-4-((tetrahydro-2H-pyran-4-yl)amino)-6,7-dihydrothieno[3,2-d]pyrimidine 5-oxide] | ≤ 2 |  |
| N#Cc1ccc2c(c1)CN(c1nc3c(c(NC4(CO)CCC4)n1)[S+]([O-])CC3)C2 (racemic) [Compound 27, (R/S)-2-(4-((1-(hydroxymethyl)cyclobutyl)amino)-5-oxido-6,7-dihydrothieno[3,2-d]pyrimidin-2-yl)isoindoline-5-carbonitrile] | 2 to 5 |  |
| COc1ccc2c(c1Cl)CN(c1nc3c(c(NC4(CO)CCC4)n1)[S+]([O-])CC3)C2 (racemic) [Compound 35, (R/S)-2-(4-chloro-5-methoxyisoindolin-2-yl)-4-((1-(hydroxymethyl)cyclobutyl)amino)-6,7-dihydrothieno[3,2-d]pyrimidine 5-oxide] | 2 to 5 |  |
| COC1(c2ccc(N(C)C)cc2)CN(c2nc3c(c(NC4(CO)CCC4)n2)[S+]([O-])CC3)C1 (racemic) [Compound 109, (R/S)-2-(3-(4-(dimethylamino)phenyl)-3-methoxyazetidin-1-yl)-4-((1-(hydroxymethyl)cyclobutyl)amino)-6,7-dihydrothieno[3,2-d]pyrimidine 5-oxide] | ≤ 2 | < 1 |
| COc1ccc(C2(O)CN(c3nc4c(c(NC5(CO)CCC5)n3)[S+]([O-])CC4)C2)cc1Cl (racemic) [Compound 4, (R/S)-2-(3-(3-chloro-4-methoxyphenyl)-3-hydroxyazetidin-1-yl)-4-((1-(hydroxymethyl)cyclobutyl)amino)-6,7-dihydrothieno[3,2-d]pyrimidine 5-oxide] | 2 to 5 |  |
